# Literature values in patent US20230320382A1 (DSM IP Assets B.V., priority 2018, published 2023).
# [1] = added to the diet of growing pigs
smiles,measurement,setting,value
O=C(O)c1ccccc1 [Benzoic acid],Effect on blood pH,[1],only slightly reduces
same,Effect on urine pH,[1],markedly acidifies
same,Site of absorption,ingested benzoic acid,absorbed in the first tract of the small intestine
